In patent US10722501B2 (BAYER AKTIENGESELLSCHAFT, priority 2016, dated 2020):
pIC50: −log10 of the molar value.

target: T1, recombinant full-length human prolyl endopeptidase (PREP) (Homo sapiens, UniProt P48147); assay: Biochemical human prolyl endopeptidase (PREP) assay with fluorescently labelled substrate; settings: substrate Z-Gly-Pro-AMC 50 μM, 32° C., 60 min; some as mean values from multiple independent determinations
T1 construct: To recombinant full-length human prolyl endopeptidase (PREP, R&D-Systems, 4308-SE); purchased R&D-Systems 4308-SE
T1 sequence (P48147 1-710): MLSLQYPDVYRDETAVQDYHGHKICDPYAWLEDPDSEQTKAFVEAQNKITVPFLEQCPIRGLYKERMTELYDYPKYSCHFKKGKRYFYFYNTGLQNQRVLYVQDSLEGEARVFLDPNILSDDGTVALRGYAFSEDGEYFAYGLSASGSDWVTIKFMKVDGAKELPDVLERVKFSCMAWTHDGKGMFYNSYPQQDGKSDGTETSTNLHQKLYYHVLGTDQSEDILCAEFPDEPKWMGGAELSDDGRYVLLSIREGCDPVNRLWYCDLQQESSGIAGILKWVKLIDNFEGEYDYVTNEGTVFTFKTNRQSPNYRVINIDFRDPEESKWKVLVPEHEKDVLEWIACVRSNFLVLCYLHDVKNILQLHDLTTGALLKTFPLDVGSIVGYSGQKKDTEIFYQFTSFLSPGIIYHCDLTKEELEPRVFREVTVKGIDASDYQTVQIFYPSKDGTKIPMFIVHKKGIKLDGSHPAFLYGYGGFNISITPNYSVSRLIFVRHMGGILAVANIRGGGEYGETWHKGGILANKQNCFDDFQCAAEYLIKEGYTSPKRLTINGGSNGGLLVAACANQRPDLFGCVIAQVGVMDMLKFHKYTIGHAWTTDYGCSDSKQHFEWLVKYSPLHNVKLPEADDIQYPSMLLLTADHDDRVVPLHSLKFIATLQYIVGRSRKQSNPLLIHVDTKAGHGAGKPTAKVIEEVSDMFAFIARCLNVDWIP
How it was run: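 Initial rates of fluorescence increase from 50 μM Z-Gly-Pro-AMC cleavage (ex 360/em 465 nm, 60 min, 32° C) give percent PREP activity versus no-compound control, and IC50 is interpolated. Enzyme used at 0.4 nM (final, example) in Tris pH 7.5 with EDTA, GSH, BSA and Brij-35; compounds span 1 nM to 30 μM.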

pIC50	Compound
8.82	CC1CCC(C(=O)N2CC[C@H](F)C2)n2c1nn(Cc1ccc(C(F)(F)F)nc1)c2=O (mixture of isomers) [Example 220, (5RS,8RS)-5-{[(3S)-3-Fluoropyrrolidin-1-yl]carbonyl}-8-methyl-2-{[6-(trifluoromethyl)pyridin-3-yl]methyl}-5,6,7,8-tetrahydro[1,2,4]triazolo[4,3-a]pyridin-3(2H)-one]
8.80	O=C(C1CCCc2nn(Cc3ccc(Cl)c(Cl)c3)c(=O)n21)N1CCC(F)(F)C1 (racemic) [Example 45, (5RS)-2-(3,4-Dichlorobenzyl)-5-[(3,3-difluoropyrrolidin-1-yl)carbonyl]-5,6,7,8-tetrahydro[1,2,4]triazolo[4,3-a]pyridin-3(2H)-one]
8.12	O=C(C1CCC(C(F)(F)F)c2nn(Cc3ncccc3F)c(=O)n21)N1CC[C@H](F)C1 (mixture of isomers) [Example 273, (5RS,8RS)-2-[(3-Fluoropyridin-2-yl)methyl]-5-{[(3S)-3-fluoropyrrolidin-1-yl]carbonyl}-8-(trifluoromethyl)-5,6,7,8-tetrahydro[1,2,4]triazolo[4,3-a]pyridin-3(2H)-one]
7.57	O=C([C@@H]1CCCc2nn(Cc3nc(C(F)(F)F)no3)c(=O)n21)N1CC(F)C1 [Example 540, (5S)-5-[(3-Fluoroazetidin-1-yl)carbonyl]-2-{[3-(trifluoromethyl)-1,2,4-oxadiazol-5-yl]methyl}-5,6,7,8-tetrahydro[1,2,4]triazolo[4,3-a]pyridin-3(2H)-one]
7.20	O=C([C@@H]1CCCc2nn(Cc3nnc(C(F)(F)F)o3)c(=O)n21)N1CCC(F)(F)C1 [Example 541, (5S)-5-[(3,3-Difluoropyrrolidin-1-yl)carbonyl]-2-{[5-(trifluoromethyl)-1,3,4-oxadiazol-2-yl]methyl}-5,6,7,8-tetrahydro[1,2,4]triazolo[4,3-a]pyridin-3(2H)-one]
8.82	CC1CCC(C(=O)N2CC[C@H](F)C2)n2c1nn(Cc1ccc(F)cc1F)c2=O (mixture of isomers) [Example 326, (5RS,8RS)-2-(2,4-Difluorobenzyl)-5-{[(3S)-3-fluoropyrrolidin-1-yl]carbonyl}-8-methyl-5,6,7,8-tetrahydro[1,2,4]triazolo[4,3-a]pyridin-3(2H)-one]
8.93	O=C(C1CCCc2nn(Cc3ccc4c(c3)CCCC4)c(=O)n21)N1CCC(F)(F)C1 (racemic) [Example 87, (5RS)-5-[(3,3-Difluoropyrrolidin-1-yl)carbonyl]-2-(5,6,7,8-tetrahydronaphthalen-2-ylmethyl)-5,6,7,8-tetrahydro[1,2,4]triazolo[4,3-a]pyridin-3(2H)-one]
9.15	O=C([C@@H]1CCCc2nn(Cc3cncc(Br)c3)c(=O)n21)N1CC[C@H](F)C1 [Example 509, (5S)-2-[(5-Bromopyridin-3-yl)methyl]-5-{[(3S)-3-fluoropyrrolidin-1-yl]carbonyl}-5,6,7,8-tetrahydro[1,2,4]triazolo[4,3-a]pyridin-3(2H)-one]
8.16	Cn1ccc(Cn2nc3n(c2=O)C(C(=O)N2CCCC2)CCC3)n1 (racemic) [Example 21, (5RS)-2-[(1-Methyl-1H-pyrazol-3-yl)methyl]-5-(pyrrolidin-1-ylcarbonyl)-5,6,7,8-tetrahydro[1,2,4]triazolo[4,3-a]pyridin-3(2H)-one]
6.34	O=C([C@@H]1CCCc2nn(Cc3ccc(C(F)(F)F)nc3)c(=O)n21)N1CCC2CC21 (single isomer, unassigned) [Example 200]
7.05	O=C(C1CCc2nn(Cc3ccc(C(F)(F)F)nc3)c(=O)n21)N1CC(F)C1 (racemic) [Example 170, (5RS)-5-[(3-Fluoroazetidin-1-yl)carbonyl]-2-{[6-(trifluoromethyl)pyridin-3-yl]methyl}-2,5,6,7-tetrahydro-3H-pyrrolo[2,1-c][1,2,4]triazol-3-one]
8.96	O=C([C@@H]1CCCc2nn(Cc3ccnc(C(F)(F)F)c3F)c(=O)n21)N1CCCC1 [Example 75, (5S)-2-{[3-Fluoro-2-(trifluoromethyl)pyridin-4-yl]methyl}-5-(pyrrolidin-1-ylcarbonyl)-5,6,7,8-tetrahydro[1,2,4]triazolo[4,3-a]pyridin-3(2H)-one]
7.96	CCn1ccnc1Cn1nc2n(c1=O)C(C(=O)N1CCCC1)CCC2 (racemic) [Example 70, (5RS)-2-[(1-Ethyl-1H-imidazol-2-yl)methyl]-5-(pyrrolidin-1-ylcarbonyl)-5,6,7,8-tetrahydro[1,2,4]triazolo[4,3-a]pyridin-3(2H)-one]
9.05	O=C([C@@H]1CCc2nn(Cc3ccc(F)c(Cl)c3)c(=O)n21)N1CCCC1 [Example 51, (5S)-2-(3-Chloro-4-fluorobenzyl)-5-(pyrrolidin-1-ylcarbonyl)-2,5,6,7-tetrahydro-3H-pyrrolo[2,1-c][1,2,4]triazol-3-one]
7.82	N#Cc1ccc(Cn2nc3n(c2=O)C(C(=O)N2CCCC2)CCC3)cn1 (racemic) [Example 35, 5-{[(5RS)-3-Oxo-5-(pyrrolidin-1-ylcarbonyl)-5,6,7,8-tetrahydro[1,2,4]triazolo[4,3-a]pyridin-2(3H)-yl]methyl}pyridine-2-carbonitrile]
9.03	Cc1ccc(Cn2nc3n(c2=O)[C@H](C(=O)N2CC(CF)C2)CCC3)cc1 [Example 146, (5S)-5-{[3-(Fluoromethyl)azetidin-1-yl]carbonyl}-2-(4-methylbenzyl)-5,6,7,8-tetrahydro[1,2,4]triazolo[4,3-a]pyridin-3(2H)-one]
9.43	O=C([C@@H]1CCCc2nn(CC3CCC(C(F)(F)F)CC3)c(=O)n21)N1CCCC1 (single isomer, unassigned) [Example 185]
8.06	O=C(C1CCCc2nn(Cc3ccc(OC(F)(F)F)c(F)c3)c(=O)n21)N1CCCC1 (racemic) [Example 67, (5RS)-2-[3-Fluoro-4-(trifluoromethoxy)benzyl]-5-(pyrrolidin-1-ylcarbonyl)-5,6,7,8-tetrahydro[1,2,4]triazolo[4,3-a]pyridin-3(2H)-one]
9.15	O=C(C1CCCc2nn(Cc3ccc4c(c3)CCC4)c(=O)n21)N1CCCC1 (racemic) [Example 11, (5RS)-2-(2,3-Dihydro-1H-inden-5-ylmethyl)-5-(pyrrolidin-1-ylcarbonyl)-5,6,7,8-tetrahydro[1,2,4]triazolo[4,3-a]pyridin-3(2H)-one]
8.71	Cc1ccc(Cn2nc3n(c2=O)C(C(=O)N2CC(F)(F)C2)CCC3)cc1 (racemic) [Example 114, (5RS)-5-[(3,3-Difluoroazetidin-1-yl)carbonyl]-2-(4-methylbenzyl)-5,6,7,8-tetrahydro[1,2,4]triazolo[4,3-a]pyridin-3(2H)-one]
8.82	COc1ccc(CCn2nc3n(c2=O)[C@H](C(=O)N2C[C@@H](F)[C@@H](F)C2)CCC3)cc1 [Example 522, (5S)-5-{[(3R,4S)-3,4-Difluoropyrrolidin-1-yl]carbonyl}-2-[2-(4-methoxyphenyl)ethyl]-5,6,7,8-tetrahydro[1,2,4]triazolo[4,3-a]pyridin-3(2H)-one]
9.28	O=C([C@@H]1CCCc2nn(Cc3cc(F)c(F)cc3F)c(=O)n21)N1C[C@@H](F)[C@@H](F)C1 [Example 492, (5S)-5-{[(3R,4S)-3,4-Difluoropyrrolidin-1-yl]carbonyl}-2-(2,4,5-trifluorobenzyl)-5,6,7,8-tetrahydro[1,2,4]triazolo[4,3-a]pyridin-3(2H)-one]
8.92	O=C([C@@H]1CCCc2nn(CC3(c4ccc(C(F)(F)F)cc4)CC3)c(=O)n21)N1CC(F)C1 [Example 527, (5S)-5-[(3-Fluoroazetidin-1-yl)carbonyl]-2-({1-[4-(trifluoromethyl)phenyl]cyclopropyl}methyl)-5,6,7,8-tetrahydro[1,2,4]triazolo[4,3-a]pyridin-3(2H)-one]
8.41	O=C([C@@H]1CCC(F)(F)c2nn(Cc3ncc(C(F)(F)F)cc3Cl)c(=O)n21)N1CCC(F)(F)C1 [Example 590, (5S)-2-{[3-Chloro-5-(trifluoromethyl)pyridin-2-yl]methyl}-5-[(3,3-difluoropyrrolidin-1-yl)carbonyl]-8,8-difluoro-5,6,7,8-tetrahydro[1,2,4]triazolo[4,3-a]pyridin-3(2H)-one]
9.38	Cc1ccc(Cn2nc3n(c2=O)[C@H](C(=O)N2CC(F)C2)CCC3)cc1 [Example 113, (5S)-5-[(3-Fluoroazetidin-1-yl)carbonyl]-2-(4-methylbenzyl)-5,6,7,8-tetrahydro[1,2,4]triazolo[4,3-a]pyridin-3(2H)-one]
9.28	O=C([C@@H]1CCCc2nn(Cc3ccc(Br)cc3F)c(=O)n21)N1C[C@@H](F)[C@@H](F)C1 [Example 215, (5S)-2-(4-Bromo-2-fluorobenzyl)-5-{[(3R,4S)-3,4-difluoropyrrolidin-1-yl]carbonyl}-5,6,7,8-tetrahydro[1,2,4]triazolo[4,3-a]pyridin-3(2H)-one]
